Measurements taken from ChEMBL document CHEMBL1152673, “Crystal structure of 3-isopropylmalate dehydrogenase in complex with NAD(+) and a designed inhibitor” (Bioorg Med Chem, 2009).

Target: 3-isopropylmalate dehydrogenase (Thermus thermophilus, UniProt Q5SIY4)
Assay: Inhibition of Thermus thermophilus HB8 IPMDH assessed as formation of NADH by Lineweaver-Burke plot analysis

Sequence of 3-isopropylmalate dehydrogenase (Q5SIY4 whole entry): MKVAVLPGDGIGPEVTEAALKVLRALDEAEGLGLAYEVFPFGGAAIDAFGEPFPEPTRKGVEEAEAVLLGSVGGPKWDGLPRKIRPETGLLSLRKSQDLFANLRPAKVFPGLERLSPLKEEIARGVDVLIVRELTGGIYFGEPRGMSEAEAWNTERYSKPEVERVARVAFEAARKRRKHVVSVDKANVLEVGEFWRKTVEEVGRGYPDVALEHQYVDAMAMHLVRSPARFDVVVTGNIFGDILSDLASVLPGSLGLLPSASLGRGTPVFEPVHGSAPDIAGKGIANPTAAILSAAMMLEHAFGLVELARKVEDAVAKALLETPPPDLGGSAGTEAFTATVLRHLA

Ki: 62 nM
SMILES: CS[C@H](C(=O)O)[C@@H](O)C(=O)O
